In paper PMC7914897, “Cytotoxic Potential of a-Azepano- and 3-Amino-3,4-SeCo-Triterpenoids” (International Journal of Molecular Sciences, 2021):
Read-outs that look alike come from different tables or passages of the source.

How the values were obtained:
CAKI-1 (Renal cancer) = experiment: NCI-60 screen (SRB, 48 h); conditions: for GI50 / IC (TGI) / CC50: Homo sapiens; for GI50: CAKI-1; for IC (TGI): CAKI-1, 48 h, read-out: TGI; for CC50: CAKI-1, read-out: LC50
TK-10 (Renal cancer) = experiment: NCI-60 screen (SRB, 48 h); conditions: Homo sapiens; for GI50: TK-10; for IC (TGI): TK-10, 48 h, read-out: TGI
BT-549 (Breast cancer) = experiment: NCI-60 screen (SRB, 48 h); format: cell-based; conditions: Homo sapiens; for GI50: BT-549; for IC (TGI): BT-549, 48 h
HCT-116 (Colon cancer) = experiment: NCI-60 screen (SRB, 48 h); conditions: Homo sapiens; for GI50: HCT-116; for IC (TGI): read-out: TGI
OVCAR-5 (Ovarian cancer) = experiment: NCI-60 screen (SRB, 48 h); conditions: for GI50 / IC (TGI): Homo sapiens; for GI50: OVCAR-5; for IC (TGI): OVCAR-5, 48 h, read-out: TGI
PC-3 (Prostate cancer) = experiment: NCI-60 screen (SRB, 48 h); conditions: Homo sapiens; for GI50: PC-3; for IC (TGI): PC-3, 48 h, read-out: TGI
RPMI-8226 (Leukemia) = experiment: NCI-60 screen (SRB, 48 h); conditions: Homo sapiens; for GI50: RPMI-8226; for IC (TGI): RPMI-8226, 48 h, read-out: TGI
SK-MEL-5 (Melanoma) = experiment: NCI-60 screen (SRB, 48 h); conditions: Homo sapiens; for GI50: SK-MEL-5; for IC (TGI): SK-MEL-5, 48 h, read-out: TGI
RXF 393 (Renal cancer) = experiment: NCI-60 screen (SRB, 48 h); conditions: for GI50: RXF 393; for IC (TGI): RXF 393, 48 h, read-out: TGI
MDA-MB-435 (Melanoma) = experiment: NCI-60 screen (SRB, 48 h); format: cell-based
IGROV1 (Ovarian cancer) = experiment: NCI-60 screen (SRB, 48 h); conditions: for GI50: IGROV-1; for Growth % of the Most Sensitive Cell Lines: IGROV1, 1 dose 10 µM
SF-268 (CNS cancer) = experiment: NCI-60 screen (SRB, 48 h); conditions: Homo sapiens; for GI50: SF-268; for IC (TGI): SF-268, 48 h, read-out: TGI
NSC lung cancer subpanel = experiment: NCI-60 screen, subpanel; conditions: Homo sapiens; for IC (TGI): 48 h, read-out: TGI MG_MID; for GI50: read-out: GI50 MG_MID
U251 (CNS cancer) = experiment: NCI-60 screen (SRB, 48 h); conditions: Homo sapiens; for GI50: U-251
SF-539 (CNS cancer) = experiment: NCI-60 screen (SRB, 48 h); conditions: Homo sapiens; for GI50: SF-539
[1] = tested on: A2780 (ovarian carcinoma); experiment: SRB cytotoxicity assay, 72 h; format: cell-based, human; conditions: Homo sapiens; A2780, 72 h, cut-off 30 µM; read-out: EC50
Experimental: (§1) The cytotoxicity of compounds 1–20 was evaluated by means of a colorimetric sulforhodamine B (SRB) assay. For all compounds, the EC50 values were determined for the human tumor cell lines A375 (malignant melanoma), HT29 (colorectal carcinoma), MCF-7 (breast carcinoma), A2780 (ovarian carcinoma), FaDu (hypopharyngeal carcinoma), and NIH 3T3 (non-malignant mouse fibroblasts).
(§2) In short, exponentially growing cells were seeded into 96-well plates on day 0 at the appropriate cell densities to prevent confluence of the cells during the period of experiment. After 24 h, the cells were treated with serial dilutions of the compounds (0–30 µM) for 72 h. The final concentration of DMSO never exceeded 0.5%, which was non-toxic to the cells. After a 72 h treatment, the supernatant medium from the 96-well plates was discarded, and the cells were fixed with 10% TCA. For a thorough fixation, the plates were allowed to rest at 4 °C. After fixation, the cells were washed in a strip washer. The washing was done four times with water using alternate dispensing and aspiration procedures. The plates were then dyed with 100 µL of 0.4% SRB for about 20 min. After dying, the plates were washed with 1% acetic acid to remove the excess of the dye and allowed to air-dry overnight. Tris base solution (200 µL, 10 mM) was added to each well and absorbance was measured at λ = 570 nm (using a 96 well plate reader, Tecan Spectra, Crailsheim, Germany). The percentages of surviving cells relative to untreated controls were determined.

MCF-7 (breast carcinoma) = experiment: SRB cytotoxicity assay, 72 h; format: cell-based, human; conditions: Homo sapiens, MCF7; MCF-7, 72 h, cut-off 30 µM; read-out: EC50
Experimental: as §1, §2

[2] = tested on: A375 (malignant melanoma); experiment: SRB cytotoxicity assay, 72 h; format: cell-based, human; conditions: Homo sapiens, A-375, 72 h, A375, 72 h, cut-off 30 µM; read-out: EC50
Experimental: as §1, §2

[3] = tested on: FaDu (hypopharyngeal carcinoma); experiment: SRB cytotoxicity assay, 72 h; format: cell-based, human; conditions: Homo sapiens, cut-off 30 µM, read-out: EC50
Experimental: as §1, §2

[4] = tested on: HT29 (colorectal carcinoma); experiment: SRB cytotoxicity assay, 72 h; format: cell-based, human; conditions: Homo sapiens, HT-29; HT29, 72 h, cut-off 30 µM; read-out: EC50
Experimental: as §1, §2

HT29 (Colon cancer) = experiment: NCI-60 screen (SRB, 48 h); conditions: Homo sapiens; for GI50: HT-29; for IC (TGI): HT-29, 48 h, read-out: TGI
CCRF-CEM (Leukemia) = experiment: NCI-60 screen (SRB, 48 h); conditions: Homo sapiens; for CC50: read-out: LC50
SK-OV-3 (Ovarian cancer) = experiment: NCI-60 screen (SRB, 48 h); conditions: Homo sapiens; for GI50: SK-OV-3; for IC (TGI): SK-OV-3, 48 h, read-out: TGI; for CC50: SK-OV-3, read-out: LC50

C=C(C)[C@@H]1CCC=C2CC[C@]3(C)[C@H](CC[C@@H]4[C@@]5(C)CCCNC(C)(C)[C@@H]5CC[C@]43C)[C@H]21 [Compound 8]
Growth % of the Most Sensitive Cell Lines (CAKI-1 (Renal cancer); CAKI-1, 1 dose 10 µM): −92.49% | GI50 (CAKI-1 (Renal cancer)): 1810 nM | IC (TGI) (CAKI-1 (Renal cancer)): 3220 nM | CC50 (CAKI-1 (Renal cancer)): 5730 nM | GI50 (TK-10 (Renal cancer)): 1880 nM | IC (TGI) (TK-10 (Renal cancer)): 3450 nM | CC50 (TK-10 (Renal cancer); TK-10, read-out: LC50): 6320 nM | GI50 (BT-549 (Breast cancer)): 1680 nM | IC (TGI) (BT-549 (Breast cancer)): 3230 nM | GI50 (HCT-116 (Colon cancer)): 1370 nM | activity at 10 µM (HCT-116 (Colon cancer); HCT-116, 48 h, read-out: Growth % of the Most Sensitive Cell Lines): -96.2% | IC (TGI) (HCT-116 (Colon cancer); HCT-116, 48 h): 2820 nM | GI50 (OVCAR-5 (Ovarian cancer)): 1750 nM | IC (TGI) (OVCAR-5 (Ovarian cancer)): 3320 nM | GI50 (PC-3 (Prostate cancer)): 1650 nM | IC (TGI) (PC-3 (Prostate cancer)): 3060 nM | CC50 (PC-3 (Prostate cancer); PC-3, read-out: LC50): 5680 nM | GI50 (RPMI-8226 (Leukemia)): 2260 nM | IC (TGI) (RPMI-8226 (Leukemia)): 4730 nM | GI50 (SK-MEL-5 (Melanoma)): 1700 nM | IC (TGI) (SK-MEL-5 (Melanoma)): 3140 nM | GI50 (RXF 393 (Renal cancer); Homo sapiens): 1740 nM | IC (TGI) (RXF 393 (Renal cancer); Homo sapiens): 3320 nM | CC50 (RXF 393 (Renal cancer); Homo sapiens, RXF 393, read-out: LC50): 6330 nM | Growth % of the Most Sensitive Cell Lines (RXF 393 (Renal cancer); RXF 393, 1 dose 10 µM): −91.86% | GI50 (MDA-MB-435 (Melanoma); Homo sapiens, MDA-MB-435): 1870 nM | IC (TGI) (MDA-MB-435 (Melanoma); Homo sapiens, MDA-MB-435, 48 h, read-out: TGI): 3490 nM | CC50 (MDA-MB-435 (Melanoma); Homo sapiens, MDA-MB-435; read-out: LC50 (the source's name)): 6510 nM | GI50 (IGROV1 (Ovarian cancer); Homo sapiens): 1690 nM | IC (TGI) (IGROV1 (Ovarian cancer); Homo sapiens, IGROV-1, 48 h, read-out: TGI): 3280 nM | CC50 (IGROV1 (Ovarian cancer); Homo sapiens, IGROV-1, read-out: LC50): 6350 nM | Growth % of the Most Sensitive Cell Lines (IGROV1 (Ovarian cancer)): −94.22% | GI50 (SF-268 (CNS cancer)): 1910 nM | IC (TGI) (SF-268 (CNS cancer)): 3640 nM | IC (TGI) (NSC lung cancer subpanel): 3300 nM | GI50 (NSC lung cancer subpanel): 1730 nM | CC50 (NSC lung cancer subpanel; read-out: LC50 MG_MID): 6180 nM | GI50 (U251 (CNS cancer)): 1760 nM | IC (TGI) (U251 (CNS cancer); U-251, 48 h, read-out: TGI): 3260 nM | CC50 (U251 (CNS cancer); U-251, read-out: LC50): 6070 nM | GI50 (SF-539 (CNS cancer)): 1520 nM | IC (TGI) (SF-539 (CNS cancer); SF-539, 48 h, read-out: TGI): 2990 nM | EC50 [1]: 1880 ± 200 nM | EC50 (MCF-7 (breast carcinoma)): 1410 ± 100 nM | EC50 [2]: 1780 ± 100 nM | EC50 [3]: 1750 ± 200 nM | EC50 [4]: 1300 ± 200 nM | GI50 (HT29 (Colon cancer)): 1200 nM | IC (TGI) (HT29 (Colon cancer)): 2580 nM | CC50 (HT29 (Colon cancer); HT-29, read-out: LC50): 5560 nM | GI50 (CCRF-CEM (Leukemia)): 2270 nM | IC (TGI) (CCRF-CEM (Leukemia); 48 h, read-out: TGI): 5630 nM | CC50 (CCRF-CEM (Leukemia)): > 100000 nM | GI50 (SK-OV-3 (Ovarian cancer)): 1810 nM | IC (TGI) (SK-OV-3 (Ovarian cancer)): 3370 nM | CC50 (SK-OV-3 (Ovarian cancer)): 6280 nM

C=C(C)[C@@H]1CC[C@]2(COS(=O)(=O)c3ccc(C)cc3)CC[C@]3(C)[C@@H](CC[C@@H]4[C@@]5(C)CCCNC(C)(C)[C@@H]5CC[C@]43C)[C@@H]12 [Compound 12]
GI50 (CAKI-1 (Renal cancer)): 1740 nM | IC (TGI) (CAKI-1 (Renal cancer)): 3150 nM | CC50 (CAKI-1 (Renal cancer)): 5710 nM | GI50 (TK-10 (Renal cancer)): 1660 nM | IC (TGI) (TK-10 (Renal cancer)): 3230 nM | GI50 (BT-549 (Breast cancer)): 1840 nM | IC (TGI) (BT-549 (Breast cancer)): 3560 nM | GI50 (HCT-116 (Colon cancer)): 1790 nM | IC (TGI) (HCT-116 (Colon cancer); HCT-116, 48 h): 3330 nM | GI50 (OVCAR-5 (Ovarian cancer)): 1640 nM | IC (TGI) (OVCAR-5 (Ovarian cancer)): 3130 nM | Growth % of the Most Sensitive Cell Lines (OVCAR-5 (Ovarian cancer); OVCAR-5, 1 dose 10 µM): −87.72% | GI50 (PC-3 (Prostate cancer)): 1580 nM | IC (TGI) (PC-3 (Prostate cancer)): 3000 nM | GI50 (RPMI-8226 (Leukemia)): 1860 nM | IC (TGI) (RPMI-8226 (Leukemia)): 4540 nM | CC50 (RPMI-8226 (Leukemia); RPMI-8226, read-out: LC50): > 100000 nM | GI50 (SK-MEL-5 (Melanoma)): 1670 nM | IC (TGI) (SK-MEL-5 (Melanoma)): 3080 nM | GI50 (RXF 393 (Renal cancer); Homo sapiens): 1620 nM | IC (TGI) (RXF 393 (Renal cancer); Homo sapiens): 3130 nM | IC (TGI) (MDA-MB-435 (Melanoma); Homo sapiens, MDA-MB-435, 48 h; read-out: TGI): 3190 nM | GI50 (MDA-MB-435 (Melanoma); Homo sapiens, MDA-MB-435; read-out: GI50): 1730 nM | GI50 (IGROV1 (Ovarian cancer); Homo sapiens): 1840 nM | Growth % of the Most Sensitive Cell Lines (IGROV1 (Ovarian cancer)): −87.10% | GI50 (SF-268 (CNS cancer)): 1880 nM | IC (TGI) (SF-268 (CNS cancer)): 3790 nM | IC (TGI) (NSC lung cancer subpanel): 3250 nM | GI50 (NSC lung cancer subpanel): 1710 nM | GI50 (U251 (CNS cancer)): 1750 nM | GI50 (SF-539 (CNS cancer)): 1700 nM | EC50 [1]: 1680 ± 100 nM | EC50 (MCF-7 (breast carcinoma)): 1630 ± 100 nM | EC50 [2]: 2030 ± 100 nM | EC50 [3]: 1590 ± 100 nM | EC50 [4]: 1960 ± 300 nM | GI50 (HT29 (Colon cancer)): 1930 nM | IC (TGI) (HT29 (Colon cancer)): 3500 nM | GI50 (CCRF-CEM (Leukemia)): 2280 nM | CC50 (CCRF-CEM (Leukemia)): > 100000 nM | GI50 (SK-OV-3 (Ovarian cancer)): 1870 nM | IC (TGI) (SK-OV-3 (Ovarian cancer)): 3300 nM | CC50 (SK-OV-3 (Ovarian cancer)): 5820 nM
